Data as given in paper PMC8960621, “Solution speciation and human serum protein binding of indium(III) complexes of 8-hydroxyquinoline, deferiprone and maltol” (Journal of Biological Inorganic Chemistry, 2022).
Marks after values point to notes of the source that are not given here.

What was measured:
[1] = pM* / pM values computed at pH 7.4 from stability constants; type: physicochemical; conditions: for pIn (pM = –log[M(III)]): Table S1, does not account for hydrolysis of the metal ion; for pGa* (−log([M] + [M(OH)(1–4)])): pH 7.4, 1 μM Ga(III), computed from stability constants of Ref. 27 (deferiprone) or Ref. 29 (maltol, HQS, HQ); for pGa* (−log([M] + [M(OH)(1–4)])) / pIn* (−log([M] + [M(OH)(1–4)])): 10 μM ligand; for pIn* (−log([M] + [M(OH)(1–4)])): pH 7.4, 1 μM In(III)
Method: To compare the In(III) binding ability of the studied four ligands, pIn* (= negative decadic logarithm of the equilibrium concentration of the unbound metal species) values were calculated at pH 7.4 using the determined stability constants (Table 1).
Table S1. Calculated pM values for the studied In(III) complexes and their Ga analogues,
a Computed on the basis of stability constants taken from Ref. [27]. b Computed on the basis of stability
constants taken from Ref. [29] […]

apoTf = biological target: T1, apoTf (Homo sapiens, UniProt P02787); experiment: Interaction with (apo)Tf: ligand displacement and binding of the intact complex (UV-vis, fluorescence, ultrafiltration); conditions: UV–vis and fluorescence, pH 7.40
T1 construct: purchased Sigma-Aldrich T2036
Method: Therefore, UV–vis and fluorescence emission spectra of InQ3 were recorded in the presence of increasing amounts of apoTf (Fig. 5a, b). After a short initial phase, the absorbance band of InQ3 is reduced gradually by the addition of the protein, while the development of the new band at lower wavelengths (at ca. 310 nm) refers to the liberation of HQ. Namely, there is a competition for In(III) ion between the ligand and the iron-binding sites of apoTf. Absorbance values depicted at 370 nm and 310 nm (Fig. 5c) saturate roughly to the corresponding values of the free ligand and outline a sigmoidal shape. Fluorescence intensity of the same sample set (Fig. 5b, d) was enhanced and moderately blue shifted (from λmax = 540 nm to 532 nm) until the addition of ca. 0.2 equiv. apoTf. […] Then, by the addition of more apoTf, intensities decreased and λmax shifted further to shorter wavelengths (527 nm). […] Based on this and the results of apoTf quenching (vide supra) protein binding of the non-dissociated complex is presumed. This is further supported by fluorescence lifetime measurements; where new lifetime components τ3 = 4.7 ± 0.2 ns and τ4 = 13.8 ± 0.4 ns appeared for InQ3 in the presence of 0.1 – 0.3 equiv. apoTf (after 1 min waiting time). […] Here, the sigmoid shape of the UV–vis absorbance was seen again (Fig. S5) and the shifted inflection point in comparison to the titration with apoTf underlines the lower In(III) binding capacity of Tf. […]
In the case of InD3, the absorbance bands of the metal complex and apoTf overlap in great extent, however, spectra can be deconvoluted to the spectra of InD3, deferiprone and apoTf (see Fig S6 for details), and molar fractions of the respective species can be calculated (Fig. 6). Ultrafiltration experiments were carried out as well for the InD3 – apoTf system and the non-protein bound LMM fractions were analyzed by UV–vis spectrophotometry (Fig. 6). […] The complex dissociated in line with the addition of apoTf and a practically quantitative displacement of deferiprone seems to take place by the addition of ca. 0.5 equiv. apoTf. […]

[2] = UV-vis spectrophotometric titrations: proton dissociation constants of the ligands and overall stability constants of their In(III) complexes; type: physicochemical; conditions: T = 25.0 °C, I = 0.20 M (KCl); for logβ [InL2] / logβ [InL3] / logβ [InL]: In(III) complex of the ligand L; for pKa: water
Method: (§1) To characterize the solution stability of the In(III) complexes, pH-potentiometric and UV–vis spectrophotometric titrations were performed in water in the presence of 0.20 M chloride ions. However, stability constants for the HQ complexes could be obtained only by the latter method due to their much worse water solubility compared to the other compounds. HQS was involved as a water-soluble analogue of HQ bearing identical coordination mode. Stability constants of deferiprone were also determined by both methods in the present work to validate our experimental setup and data treatment, since the In(III) ‒ deferiprone system was already characterized by Orvig and collaborators. The hydrolysis of In(III) and its interaction with chloride ions were taken into consideration, and stability constants of the hydoxido and chlorido complexes were utilized for our calculations. As a first step, the proton dissociation constants (Ka) were determined for the ligands (Table 1) showing good agreement with the previously published data (see Table 1). The overall stability constants obtained for the octahedral In(III)-deferiprone complexes by both methods (Table 1) are fairly similar to those reported at 150 mM NaCl. […] Complexes with the same stoichiometry were also formed with the O,N-donor containing HQS (Table 1). […] Stability constants for the HQ complexes (Table 1) were determined by the deconvolution of UV–vis spectra recorded at various pH values (Fig. 1a), and the computed molar absorbance spectra for the individual ligand and complex species are shown in Fig. 1b. Due to the lack of d-d or charge transfer bands, the molar absorbance spectra of the complexes represent similar λmax values to that of the completely deprotonated form of the ligand; although, the shape of the spectra is different and is quite similar to that was found for the Ga(III) complexes.
Proton dissociation of the ligands (HQ, HQS, maltol, deferiprone) and overall stability constants and the individual spectra of their complexes were calculated with the computer program PSEQUAD [43]. The spectrophotometric titrations were performed on samples of the ligands with or without In(III); the concentration of the ligands was 0.10 mM, and the metal-to-ligand ratios were 1:1, 1:2, 1:3 and 1:4 over the pH range used in pH-potentiometric measurements at 25.0 ± 0.1 °C at an ionic strength of 0.20 M (KCl).

apo-transferrin (apoTf) [3] = biological target: T2, apo-transferrin (apoTf) (Homo sapiens, UniProt P02787); conditions: in the presence of NTA; cited from earlier work
T2 construct: purchased Sigma-Aldrich T2036

apo-transferrin (apoTf) [4] = biological target: T2, apo-transferrin (apoTf); experiment: Kinetics of the reaction with apoTf followed by UV-vis spectrophotometry; type: binding; conditions: pH 7.40 (InCl3: 2 equiv.)
Method: Firstly, the kinetics of the reaction between apoTf and InCl3 and the complexes was studied by UV–vis spectrophotometry. The reaction of 2 equiv. […] At the same time Harris et al. have observed slow equilibration with InCl3, that was accelerated (to 6 h) in the presence of NTA [18]. In the case of InQ3 and InD3, the progress of apoTf binding could be followed through the ligand bands of the complexes. […] The Ga(III)-analogue GaQ3 interacted within 1 h with apoTf under similar conditions.
For (apo)Tf containing samples, complex concentrations were 20 μM and 0–2.5 equiv. protein was added. Reference spectra for the complexes, ligands and protein were recorded as well. Samples prepared with blood serum contained three-fold diluted serum and 10 μM metal complexes. UV–vis spectra presented in this paper for complexes InD3 or InQ3 are subtracted by the spectrum of reference protein (HSA (apo)Tf or serum) sample in all cases in favour of the better interpretation of the results.

[5] = pH-potentiometric titrations: proton dissociation constants of the ligands and overall stability constants of their In(III) complexes; type: physicochemical; conditions: pH-pot, T = 25.0 °C, I = 0.20 M (KCl); for logβ [InL2] / logβ [InL3] / logβ [InL]: In(III) complex of the ligand L; for pKa: water
Method: as §1
The pH-potentiometric measurements for the determination of the proton dissociation constants of the ligands (HQS, maltol, deferiprone) and the overall stability constants of their In(III) complexes were carried out at 25.0 ± 0.1 °C in water at an ionic strength of 0.20 M (KCl, Sigma-Aldrich). The titrations were performed with a carbonate-free KOH solution of known concentration (0.20 M). An Orion 710A pH-meter equipped with a Metrohm combined electrode (type 6.0234.100) and a Metrohm 665 Dosimat burette were used for the pH-potentiometric measurements. […] The average water ionization constant, pKw, is 13.76 ± 0.01, which corresponds well to literature data. The reproducibility of the titration points included in the calculations was within 0.005 pH units. The pH-potentiometric titrations were performed in the pH range 2.0–11.5. The initial volume of the samples was 10.0 mL, and the ligand concentration was 3 mM and metal ion-to-ligand ratios of 1:1 to 1:4 were used. The fitting of the titration curves was less than 0.01 mL. (The fitting parameter is the average difference between the experimental and calculated titration curves expressed in the volume of the titrant.) Samples were deoxygenated by bubbling purified argon through them for ca. 10 min prior to the measurements. The proton dissociation constants of the ligands, the stoichiometry and the overall stability constants of the complexes were determined with the computer program HYPERQUAD [60]. Overall stability constants of the complexes (β(MpLqHr)) is defined for the general equilibrium pM + qL + rH ⇌ MpLqHr as β (MpLqHr) = [MpLqHr]/[M]^p[L]^q[H]^r where M denotes the metal ion and L the completely deprotonated ligand. Hydrolysis constants for In(III) and stability constants for the In(III)-chlorido complexes (Table 1) are taken from references. The calculations were always made from the experimental titration data measured in the absence of any precipitate in the solution.

[6] = biological target: T3, human serum albumin (HSA) (Homo sapiens, UniProt P02768); set-up: method as in PMID 25398250; conditions: cited from earlier work
T3 construct: purchased Sigma-Aldrich A8763

[7] = set-up: method as in PMID 25398250; conditions: same LMM competitors in tenfold excess, investigated separately; cited from earlier work

T2 sequence (P02787 20-698): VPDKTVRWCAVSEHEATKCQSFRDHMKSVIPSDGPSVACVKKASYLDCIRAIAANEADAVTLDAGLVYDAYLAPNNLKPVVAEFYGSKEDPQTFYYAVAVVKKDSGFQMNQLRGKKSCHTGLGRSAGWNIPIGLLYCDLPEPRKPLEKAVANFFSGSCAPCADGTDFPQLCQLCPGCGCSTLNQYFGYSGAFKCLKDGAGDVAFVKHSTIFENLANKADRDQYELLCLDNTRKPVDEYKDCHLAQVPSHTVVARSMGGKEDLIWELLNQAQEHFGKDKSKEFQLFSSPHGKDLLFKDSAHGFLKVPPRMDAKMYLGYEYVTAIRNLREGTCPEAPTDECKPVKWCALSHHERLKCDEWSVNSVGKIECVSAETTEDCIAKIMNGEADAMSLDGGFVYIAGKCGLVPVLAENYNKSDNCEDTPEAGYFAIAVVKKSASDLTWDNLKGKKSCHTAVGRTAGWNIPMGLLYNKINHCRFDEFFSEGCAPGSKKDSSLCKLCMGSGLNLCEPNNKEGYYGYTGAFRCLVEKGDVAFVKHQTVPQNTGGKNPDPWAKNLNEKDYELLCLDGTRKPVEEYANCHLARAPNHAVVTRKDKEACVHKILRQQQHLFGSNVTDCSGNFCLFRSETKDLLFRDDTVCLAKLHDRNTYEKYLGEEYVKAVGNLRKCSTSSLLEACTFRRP
T1 sequence (P02787 20-698): as above
T3 sequence (P02768 25-609): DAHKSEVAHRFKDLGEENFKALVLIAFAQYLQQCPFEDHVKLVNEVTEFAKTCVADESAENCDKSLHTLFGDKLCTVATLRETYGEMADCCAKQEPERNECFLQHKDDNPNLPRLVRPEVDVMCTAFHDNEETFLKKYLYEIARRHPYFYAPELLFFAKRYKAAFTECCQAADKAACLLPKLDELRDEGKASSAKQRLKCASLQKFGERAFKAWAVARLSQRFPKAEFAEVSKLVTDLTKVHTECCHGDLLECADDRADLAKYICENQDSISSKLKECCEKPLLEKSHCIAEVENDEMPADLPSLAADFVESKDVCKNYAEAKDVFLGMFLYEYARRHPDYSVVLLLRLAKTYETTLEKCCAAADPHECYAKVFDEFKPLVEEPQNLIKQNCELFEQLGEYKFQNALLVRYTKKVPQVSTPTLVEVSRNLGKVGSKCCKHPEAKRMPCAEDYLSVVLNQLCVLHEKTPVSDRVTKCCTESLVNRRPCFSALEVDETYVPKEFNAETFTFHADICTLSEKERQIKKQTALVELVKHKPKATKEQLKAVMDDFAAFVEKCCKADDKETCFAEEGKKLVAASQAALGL

For Oc1cccc2cccnc12 [HQ, 8-Hydroxyquinoline], the “pIn (pM = –log[M(III)])” value [1] was 16.48, the “pGa* (−log([M] + [M(OH)(1–4)]))” value [1] was 7.86^j and the “pIn* (−log([M] + [M(OH)(1–4)]))” value [1] was 8.18. The “binding via intermolecular interactions to apoTf (and Tf)” value (apoTf) was “can be excluded”, the “logβ [InL2]” value [2] was 22.87 ± 0.03 and the “logβ [InL3]” value [2] was 32.64 ± 0.06. The “logβ [InL]” value [2] was 13.43 ± 0.06, the pKa ([2]; read-out: pKa (H2L)) was 4.9 ± 0.02 and the pKa ([2]; read-out: pKa (HL)) was 9.63 ± 0.02.

In the case of [Cl-].[Cl-].[Cl-].[In+3] [InCl3, reference compound], the “equilibration time with Tf” value (apo-transferrin (apoTf) [3]) is given as 6 h and the “time to reach equilibrium in the reaction with apoTf” value (apo-transferrin (apoTf) [4]) is given as “ca. 2 h”.

For Cc1c(O)c(=O)ccn1C [Deferiprone, 3-Hydroxy-1,2-dimethylpyridin-4(1H)-one], the “pIn (pM = –log[M(III)])” value [1] was 16.25, the “pGa* (−log([M] + [M(OH)(1–4)]))” value [1] was 8.83^i and the “pIn* (−log([M] + [M(OH)(1–4)]))” value [1] was 7.95. The “logβ [InL2]” value [5] was 23.50 ± 0.06^ h, the “logβ [InL3]” value [5] was 32.66 ± 0.08^ h and the “logβ [InL]” value [5] was 13.67 ± 0.04^ h. The pKa ([5]; read-out: pKa (H2L)) was 3.66 ± 0.01, the pKa ([5]; read-out: pKa (HL)) was 9.72 ± 0.01 and the “logβ [InL2]” value [2] was 23.88 ± 0.06. For the same compound, the “logβ [InL3]” value [2] was 33.45 ± 0.03, the “logβ [InL]” value [2] was 13.72 ± 0.03 and the pKa ([2]; read-out: pKa (H2L)) was 3.57 ± 0.02.

For Cc1occc(=O)c1O [Maltol, 3-Hydroxy-2-methyl-4H-pyran-4-one], the “pIn (pM = –log[M(III)])” value [1] was 14.31, the “pGa* (−log([M] + [M(OH)(1–4)]))” value [1] was 6.00^j and the “pIn* (−log([M] + [M(OH)(1–4)]))” value [1] was 6.01. The “logβ [InL2]” value [5] was 18.59 ± 0.03, the “logβ [InL3]” value [5] was 24.38 ± 0.05 and the “logβ [InL]” value [5] was 11.03 ± 0.03. For the same compound, the pKa ([5]; read-out: pKa (HL)) was 8.47 ± 0.01, the “logβ [InL2]” value [2] was 18.78 ± 0.03 and the “logβ [InL3]” value [2] was 25.04 ± 0.06. The “logβ [InL]” value [2] was 10.77 ± 0.03 and the pKa ([2]; read-out: pKa (HL)) was 8.39 ± 0.02.

For Cc1occc(=O)c1[O-].Cc1occc(=O)c1[O-].Cc1occc(=O)c1[O-].[Ga+3] [GaM3, Tris(3-Hydroxy-2-methyl-4H-pyran-4-onato)gallium(III)], the “interaction with HSA” value [6] is listed as “no interaction” and the “effect of LMM competitors on the complex” value [7] is listed as “practically not affected”.

With O=S(=O)(O)c1ccc(O)c2ncccc12 [HQS, 8-Hydroyquinoline-5-sulfonate] the “pIn (pM = –log[M(III)])” value [1] was 16.23, the “pGa* (−log([M] + [M(OH)(1–4)]))” value [1] was 7.92^j and the “pIn* (−log([M] + [M(OH)(1–4)]))” value [1] was 7.93. The “logβ [InL2]” value [5] was 21.31 ± 0.07, the “logβ [InL3]” value [5] was 28.95 ± 0.09 and the “logβ [InL]” value [5] was 12.64 ± 0.05. The pKa ([5]; read-out: pKa (H2L)) was 3.89 ± 0.02, the pKa ([5]; read-out: pKa (HL)) was 8.46 ± 0.02 and the “logβ [InL2]” value [2] was 21.18 ± 0.06. For the same compound, the “logβ [InL3]” value [2] was 29.66 ± 0.06, the “logβ [InL]” value [2] was 12.29 ± 0.06 and the pKa ([2]; read-out: pKa (H2L)) was 3.7 ± 0.04. The pKa ([2]; read-out: pKa (HL)) was 8.27 ± 0.04.
